Consider 27 compounds from patent US5994563A, “Arylmethylphosphonic acid derivatives useful in treating bone wasting diseases” (Ortho Pharmaceutical Corporation, priority 1999, dated 1999).

Experiment [1] deals with human osteoblastic (TE85) tyrosinephosphate phosphatase. The experiment is classed as biochemical. The note with it: for IC50: read-out: TF85 IC50.
The target in experiment [2] is T1, CD45 (Homo sapiens, UniProt P08575).
T1 sequence (P08575 26-1306): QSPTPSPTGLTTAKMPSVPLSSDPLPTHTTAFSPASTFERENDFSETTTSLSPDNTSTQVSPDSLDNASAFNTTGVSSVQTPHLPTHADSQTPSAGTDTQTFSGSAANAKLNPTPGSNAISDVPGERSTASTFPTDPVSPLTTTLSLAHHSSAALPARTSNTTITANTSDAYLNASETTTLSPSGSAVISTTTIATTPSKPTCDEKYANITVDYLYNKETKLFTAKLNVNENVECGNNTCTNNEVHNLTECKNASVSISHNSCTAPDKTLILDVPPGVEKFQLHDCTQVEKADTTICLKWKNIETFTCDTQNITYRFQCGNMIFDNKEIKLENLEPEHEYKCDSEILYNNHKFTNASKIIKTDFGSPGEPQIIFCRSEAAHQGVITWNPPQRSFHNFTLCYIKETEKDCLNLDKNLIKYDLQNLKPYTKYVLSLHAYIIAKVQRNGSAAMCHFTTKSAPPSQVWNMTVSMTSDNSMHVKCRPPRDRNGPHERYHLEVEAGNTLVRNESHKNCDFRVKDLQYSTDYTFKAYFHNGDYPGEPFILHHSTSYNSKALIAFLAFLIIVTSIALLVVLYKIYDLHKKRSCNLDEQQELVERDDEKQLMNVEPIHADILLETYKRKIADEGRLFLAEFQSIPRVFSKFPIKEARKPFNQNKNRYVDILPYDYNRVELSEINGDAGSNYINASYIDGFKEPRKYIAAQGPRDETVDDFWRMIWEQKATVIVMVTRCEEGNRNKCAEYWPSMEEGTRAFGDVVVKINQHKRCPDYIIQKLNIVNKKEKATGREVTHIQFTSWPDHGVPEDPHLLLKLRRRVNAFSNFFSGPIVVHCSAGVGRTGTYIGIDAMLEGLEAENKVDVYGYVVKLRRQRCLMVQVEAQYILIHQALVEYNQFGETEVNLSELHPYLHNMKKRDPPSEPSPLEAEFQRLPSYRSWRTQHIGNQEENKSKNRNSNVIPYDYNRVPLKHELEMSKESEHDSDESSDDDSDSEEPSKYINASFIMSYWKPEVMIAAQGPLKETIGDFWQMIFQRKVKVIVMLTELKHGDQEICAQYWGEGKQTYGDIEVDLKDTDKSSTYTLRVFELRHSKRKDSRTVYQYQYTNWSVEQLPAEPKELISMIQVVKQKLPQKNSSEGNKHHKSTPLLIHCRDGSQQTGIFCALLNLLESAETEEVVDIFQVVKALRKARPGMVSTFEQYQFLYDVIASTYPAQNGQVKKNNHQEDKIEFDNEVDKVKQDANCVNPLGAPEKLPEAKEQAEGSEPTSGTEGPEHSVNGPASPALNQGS
The conditions noted are these: read-out: IC50 (CD45).

Experiment [3] addresses T1, CD45. As to the kind of experiment: biochemical.
Experiment [4] deals with human TE85 osteoblast-line cells. Briefly: Osteoblast Cell Proliferation (3H-thymidine incorporation). The experiment is classed as cell-based. The conditions noted are these: 24 h, read-out: Osteoblast Cell Prolif % X Control; for activity at 100 µM: concentration of drug 100 μM. The text has this:
The action of select compounds to stimulate osteoblast growth can be measured in culture by assuming the rate of DNA synthesis is proportional to the rate of ^3 H-thymidine incorporation into DNA. Only cells undergoing mitosis will synthesize new DNA and thus only these cells will incorporate the radiolabelled DNA-specific thymidine. The stimulation of the proliferation and differentiation of bone-forming cells, osteoblasts, is a prerequisite for an increase in bone formation and bone mass. The ability of agents to increase osteoblast proliferation and differentiation can be predicted (reference) by their action on cultured osteoblast-line cells in vitro. In this test human TE85 osteoblast-line cells (100,000) were plated on 24 well plates in DMEM containing 5% fetal calf serum for 48 hours. After removal of the media, 0.3 mL of serum-free media containing 0.25% BSA was added to each well. After 24 hours, the treatments were added to the conditioned media for an additional 24 hours. Tritiated thymidine (0.6uCi) was added for the last two hours. After rinsing the cells with Dulbeccos PBS, the cells were released from the plate by trypsinizing with 0.25 mL trypsin (0.25%) for 5-10 min. An equal aliquot of 25% TCA was added and the cell lysate allowd to stand for 15 minutes at 4° C. The lysate was centrifuged for 10 minutes, the supernatant removed, and the pellet washed with 0.2 mL of cold 80% ethanol. After a second centrifugation, the pellet was suspended in 0.1 mL 0.1% Triton X-1 00. The pellet was then sonicated to remove all of the material from the sides of the tube. This material was placed into a scintillation vial. An additional 0.08 mL of the Triton was used to rinse the tube before placing into the vial. These mbined samples were quantitated by scintillation spectrometry.
(Incorporation of labelled thymidine or its analogues reports DNA synthesis.)

Like-named read-outs stand apart in the source and are kept apart here.

The term IC50 denotes the concentration that inhibits the measured activity by half. Regarding `O=[N+]([O-])c1ccc(Oc2cccnc2)c(C(O)P(=O)(O)O)c1` (centres unmarked) [Example 15, [2-(3-Pyridyl)oxy-5-nitro]phenylhydroxymethyl-phosphonic acid], in experiment [1], the IC50 turned out to be 33 µM.

Regarding `O=[N+]([O-])c1ccc(Sc2ccc(Cl)cc2)c(C(O)P(=O)(O)O)c1` (centres unmarked) [Example 19, [2-(4-Chlorophenylthio)-5-nitro]phenylhydroxymethylphosphonic acid], the IC50 at CD45 [2] (pH 6) turned out to be 28 µM. Moreover, the “TF85 % @ 300 μM” value in experiment [1] (te85 cell extract, 15 min) was 95%.

In the case of `O=[N+]([O-])c1ccc(SCc2ccccc2)c(C(O)P(=O)(O)O)c1` (centres unmarked) [Example 28, (2-Benzylthio-5-nitro)phenylhydroxymethylphosphonic acid], the IC50 is 6 µM against CD45 [3] and 6.3 µM in experiment [1]. Also, in experiment [4], the activity at 100 µM worked out at 111%.

On to `Cc1ccc(Oc2ccc([N+](=O)[O-])cc2C(O)P(=O)(O)O)cc1` (centres unmarked) [Example 14, [2-(4-Methyl)phenoxy-5-nitro]phenylhydroxymethyl phosphonic acid], for which the “TF85 % @ 300 μM” value in experiment [1] (te85 cell extract, 15 min) was 90%.

For `O=[N+]([O-])c1cc(C(O)P(=O)(O)O)ccc1OCc1ccc(Cl)c(Cl)c1` (centres unmarked) [Example 56, [3-Nitro-4-(3,4-dichlorobenzyloxy)]phenylhydroxymethylphosphonic acid], the IC50 in experiment [1] turned out to be 30 µM.

For the compound `O=[N+]([O-])c1ccc(Sc2ccccc2)c(C(O)P(=O)(O)O)c1` (centres unmarked) [Example 17, (2-Phenylthio-5-nitro)phenylhydroxymethylphosphonic acid], in experiment [4], the activity at 100 µM came to 119%. Also, the IC50 in experiment [1] was found to be 28 µM.

As to `Cc1ccccc1CSc1ccc([N+](=O)[O-])cc1C(O)P(=O)(O)O` (centres unmarked) [Example 29, [2-(2-Methyl)benzylthio-5-nitro]phenylhydroxymethyl phosphonic acid], in experiment [1], the 50% inhibitory concentration (IC50) was 9.4 µM.

`O=[N+]([O-])c1ccc(SC2CCCCC2)c(C(O)P(=O)(O)O)c1` (centres unmarked) [Example 26, (2-Cyclohexylthio-5-nitro)phenylhydroxymethylphosphonic acid]: the results for the IC50 (at CD45 [2] (pH 6); in experiment [1]) were 1.2 µM and 5.8 µM, respectively. For the same compound, the activity at 100 µM in experiment [4] stood at 138%.

For `O=Cc1ccc(OC(=O)c2ccccc2)c([N+](=O)[O-])c1` [Example 50, 3-Nitro-4-benzoyloxybenzaldehyde], the IC50 in experiment [1] was 17 µM.

Turning to `O=[N+]([O-])c1ccc(-c2ccccc2)c(C(O)P(=O)(O)O)c1` (centres unmarked) [Example 59, (2-Phenyl-5-nitro) phenylhydroxymethylphosphonic acid], in experiment [1], the IC50 came to 10 µM.

With `O=[N+]([O-])c1cc(C(O)P(=O)(O)O)cs1` (centres unmarked) [Example 40, 2-Nitro-4-thienylhydroxymethylphosphosphonic acid], at CD45 [2] (pH 6), the 50% inhibitory concentration (IC50) worked out at 38 µM. Further, in experiment [1] (te85 cell extract, 15 min), the “TF85 % @ 300 μM” value is 79%.

Consider `Cc1ccc(CCSc2ccc([N+](=O)[O-])cc2C(O)P(=O)(O)O)cc1` (centres unmarked) [Example 32, [2-(4-Methylphenylethylthio)-5-nitro]phenyl-hydroxymethyl phosphonic acid], for which the “TF85 % @ 300 μM” value in experiment [1] (te85 cell extract, 15 min) is reported as 73%.

`O=[N+]([O-])c1ccc(Sc2ccccn2)c(C(O)P(=O)(O)O)c1` (centres unmarked) [Example 22, [2-(2-Pyridyl)thio-5-nitro]phenylhydroxymethyl-phosphonic acid]: the IC50 came to 1 µM on CD45 [2] (pH 6) and 14 µM in experiment [1].

On to `O=[N+]([O-])c1ccc(SCCCc2ccccc2)c(C(O)P(=O)(O)O)c1` (centres unmarked) [Example 34, [2-(3-Phenylpropyl)thio-5-nitro]phenylhydroxy-methyl phosphonic acid], for which the activity at 100 µM in experiment [4] came out at 127%. Further, the concentration for half-maximal inhibition (IC50) in experiment [1] is 0.45 µM.

For the compound `CCCCCCCCCCSc1ccc([N+](=O)[O-])cc1C(O)P(=O)(O)O` (centres unmarked) [Example 36, [2-(1-N-decyl)thio-5-nitro]phenylhydroxymethylphosphonic acid], in experiment [1], the IC50 was 1 µM.

In the case of `Cc1cccc(CSc2ccc([N+](=O)[O-])cc2C(O)P(=O)(O)O)c1` (centres unmarked) [Example 30, [2-(3-Methyl)benzylthio-5-nitro]phenylhydroxymethyl phosphonic acid], the IC50 in experiment [1] was determined as 4.4 µM.

For `O=[N+]([O-])c1ccc(C(O)P(=O)(O)O)s1` (centres unmarked) [Example 43, 5-Nitro-2-thiophenehydroxymethylphosphonic acid], in experiment [1], the half-inhibitory concentration (IC50) turned out to be 1 µM.

In the case of `O=[N+]([O-])c1ccc(Oc2ccccc2)c(C(O)P(=O)(O)O)c1` (centres unmarked) [Example 12, (2-Phenoxy-5-nitro)phenylhydroxymethylphosphonic acid], the values for the IC50 (on CD45 [3]; in experiment [1]) were 14 µM and 18 µM, respectively. Moreover, the activity at 100 µM in experiment [4] was 112%.

Consider `O=C(c1cc([N+](=O)[O-])ccc1Cl)P(=O)(O)O` [Example 58, (2-Chloro-5-nitro)phenyloxomethylphosphonic acid], for which the IC50 in experiment [1] worked out at 5 µM.

As to `Cc1ccc(CSc2ccc([N+](=O)[O-])cc2C(O)P(=O)(O)O)cc1` (centres unmarked) [Example 31, [2-(4-Methyl)benzylthio-5-nitro]phenylhydroxymethylphosphonic acid], the activity at 30 µM in experiment [4] (concentration of drug 30 μM) came out at 159%. Moreover, the concentration for half-maximal inhibition (IC50) in experiment [1] came to 0.82 µM.

For `O=[N+]([O-])c1ccc(Cl)c(C(O)P(=O)(O)O)c1` (centres unmarked) [Example 2, (2-Chloro-5-nitro)phenylhydroxymethylphosphonic acid], the concentration for half-maximal inhibition (IC50) was found to be 20 µM on CD45 [2] (enzyme from Jurkat cell (JEG-6) membranes, pH 6.0, 90 minutes at 37° C.) and 35 µM in experiment [1].

As to `Cc1ccc(C(O)P(=O)(O)O)cc1[N+](=O)[O-]` (centres unmarked) [Example 52, (3-Nitro-4-methyl)phenylhydroxymethyphosphonic acid], the IC50 in experiment [1] was 30 µM.

Take `COc1ccccc1Sc1ccc([N+](=O)[O-])cc1C(O)P(=O)(O)O` (centres unmarked) [Example 24, [2-(2-Methoxyphenylthio)-5-nitro]phenylhydroxymethylphosphonic acid]: the IC50 in experiment [1] was found to be 23 µM.

In the case of `CCCCCCSc1ccc([N+](=O)[O-])cc1C(O)P(=O)(O)O` (centres unmarked) [Example 38, [2-(1-N-hexanyl)thio-5-nitro]phenylhydroxy-methylphosphonic acid], the IC50 in experiment [1] was 1 µM.

Regarding `O=[N+]([O-])c1cc(C(O)P(=O)(O)O)ccc1Sc1ccc(Br)cc1` (centres unmarked) [Example 54, [3-Nitro-4-(4-bromophenylthio)]phenylhydroxymethylphosphonic acid], the “TF85 % @ 30 μM” value in experiment [1] (te85 cell extract, 15 min) was 75%.

Take `O=[N+]([O-])c1ccc(O)c(C(O)P(=O)(O)O)c1` (centres unmarked) [Example 7, (2-Hydroxy-5-nitro)phenylhydroxymethylphosphonic acid]: the half-maximal inhibitory concentration (IC50) in experiment [1] was found to be 30 µM.

Turning to `O=[N+]([O-])c1ccc(Sc2cccc(C(F)(F)F)c2)c(C(O)P(=O)(O)O)c1` (centres unmarked) [Example 20, [2-(3-Trifluoromethyl)phenylthio-5-nitro]phenylhydroxymethylphosphonic acid], the activity at 100 µM in experiment [4] is 139%. Further, the IC50 in experiment [1] is 2.4 µM.
